Test system: HCV 1b replicon
Experiment: Antiviral activity assay in HCV replicon system (Huh7 1b cells, luciferase reporter)
Type: cell-based
Details: Hepatitis C virus, Huh-7; Huh7 1b cells with HCV 1b replicon, Bright-Glo luciferase, 72 h; read-out: EC50
Text: The cell line Huh7 1b, which was provided by WuXi AppTec Co., Ltd. in Shanghai, contained an HCV 1b replicon with a stable Luciferase (Luc) reporter. It was constructed by cloning HCV nonstructural protein gene, neo (G418 resistance) and luciferase reporter gene into the pBR vector through gene recombination technology. Then the vector carrying the HCV replicon was transfected into Huh7 cells, and the transfected Huh7 cells were screened by G418 resistance. The HCV replicon was stably replicated, and the related protein and luciferase were stably expressed in Huh7 cells. The cells model was used for in-vitro screen of anti-HCV compounds. The anti-HCV activity of the compounds was measured by detecting the level of luciferase expression. See Lohmann V, et al. 1999. Replication of subgenomic hepatitis C virus RNAs in a hepatoma cell line. Science. 285(5424):110-113.
The control drug used in this experimental example was the compound of Example 25 in WO 2008/121634 (PCT/US2008/058183), i.e. (S)-2-{[(2R,3R,4R,5R)-5-(2,4-dioxo-3,4-dihydro-2H-pyrimidin-1-yl)-4-fluoro-3-hydr oxy-4-methyl-tetrahydro-furan-2-ylmethoxy]-phenoxy-phosphorylamino}-propanoic acid isopropyl ester. This compound was prepared according to the method described in J. Org. chem, 2011, 76, 8311-8319, and identified by H-NMR and mass spectrometry.
• 2.1 compound preparation: adding each of the compounds listed in Table 2 to 96-well plates using a POD™ 810 Automation Platform (LabCyte Corporation, USA), with 10 μM of each of the compounds as a starting concentration and in duplicate; serially diluting each of the compounds in 3-fold fashion and formulating 10 concentrations, with the final concentration of DMSO being 0.5%; • 2.2 cells preparation: seeding the Huh71b cells into 96-well plates respectively with a volume of 125 μl and 8×10^3 cells/well, and incubating in a 37° C., 5% CO2 incubator for 72 h; • 2.3 detection of cell activity: adding 30 μl per cell of the CellTiter-Fluor™ Reagent, incubating in a 37° C., 5% CO2 incubator for 1 h, measuring the fluorescence signal values with a fluorometer, and using the obtained data for calculation of cytotoxicities of the compounds; • 2.4 Bright-Glo detection: adding 100 μl per well of the Bright-Glo™ Luciferase Substrate, using a chemiluminescence detection system EnVision™ (PerkinElmer, USA) to detect the fluorescence signal values within 5 minutes, and using the obtained data for calculation of potencies of the compounds. • 2.5 data processing: converting the obtained data to a percentage of cell viability (Viability %) using the following formula:
[formula] • CPD: fluorescence signal value of the well added with the compound • ZPE (Zero percent effect): fluorescence signal value of the control well with zero percent effect. • Processing the raw data to calculate a percentage of inhibition (Inhibition %) using the following formula:
[formula] • CPD: fluorescence signal value of the well added with the compound; • HPE (Hundred percent effect): fluorescence signal value of the control well with hundred percent effect; • ZPE (Zero percent effect): fluorescence signal value of the control well with zero percent effect.
The inhibition percentage was processed by the GraphPad Prism software to obtain the corresponding curves and EC50 values.

CC(C)OC(=O)[C@H](C)NP(=O)(OC[C@H]1O[C@@H](n2ccc(=O)[nH]c2=O)[C@](C)(F)[C@@H]1O)Oc1ccc(-c2ccccc2)cc1 (stereo partly drawn) [Example 1, (2S)-2-((([1,1′-biphenyl]-4-yloxy)(((2R,3R,4R,5R)-5-(2,4-dioxo-3,4-dihydropyrimidin-1(2H)-yl)-4-fluoro-3-hydroxy-4-methyltetrahydrofuran-2-yl)methoxy)phosphoryl)amino)propanoic Acid Isopropyl Ester]
EC50: 0.056 µM
